Assay: activity coefficient (dimensionless); of the first substance listed, at infinite dilution; xn = mol fraction of the nth substance listed
Conditions: Liquid, x1 = 0

CC(C)CO [2-methyl-1-propanol] + O
Conditions	activity coefficient
273.35 K, Relative Headspace Analysis	31.6
283.15 K, Relative Headspace Analysis	36.8
293.15 K, headspace analysis	44.3
298.15 K, Relative Headspace Analysis	47.4
303.15 K, headspace analysis	50.3
313.15 K, headspace analysis	54.1
323.15 K, headspace analysis	57.6
333.15 K, headspace analysis	58.3
363.15 K, circulation equilibrium still	54.3
371.15 K, circulation equilibrium still	52.2

CC(C)(C)O [2-methylpropan-2-ol] + O
Conditions	activity coefficient
299.15 K, headspace analysis	13.1
303.15 K, headspace analysis	14.4
313.15 K, headspace analysis	16.9
323.15 K, Rayleigh distallation	19.9
333.15 K, Rayleigh distallation	21.8
343.15 K, Rayleigh distallation	23.5
353.15 K, circulation equilibrium still	25.4
363.15 K, circulation equilibrium still	26.3
371.15 K, circulation equilibrium still	27.4

CCC(C)O (configuration not stated) [butan-2-ol] + O
Conditions	activity coefficient
273.35 K, Relative Headspace Analysis	13.7
283.15 K, Relative Headspace Analysis	17.9
293.15 K, Relative Headspace Analysis	22.6
293.15 K, headspace analysis	22.5
303.15 K, headspace analysis	26.8
303.15 K, inert gas stripping	26.8
313.15 K, headspace analysis	31.3
313.15 K, inert gas stripping	30.8
323.15 K, headspace analysis	33.8
323.15 K, inert gas stripping	34.4
333.15 K, headspace analysis	36.9
333.15 K, inert gas stripping	35.7
343.15 K, Rayleigh distallation	38
353.15 K, Rayleigh distallation	38.4
363.15 K, circulation equilibrium still	40.4
371.15 K, circulation equilibrium still	37.8

CC(C)O [propan-2-ol] + O
Conditions	activity coefficient
283.15 K, Relative Headspace Analysis	5.37
293.15 K, Relative Headspace Analysis	6.89
308.15 K, Relative Headspace Analysis	8.84
333.15 K, Rayleigh distallation	11.8
353.15 K, circulation equilibrium still	12.5
363.15 K, circulation equilibrium still	12.9
371.15 K, circulation equilibrium still	13.1

From the NIST ThermoML archive (doi:10.1021/je600567z)
